Test results reported in PubChem BioAssay (NCI).
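Cells were grown in 96-well plates and exposed to each compound for 48 hours at five concentrations; endpoints were interpolated linearly between bracketing concentrations, or set to the highest concentration if not reached. TGI is the concentration that stops growth completely.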

What was measured:
Test in all cases: NCI anticancer screen, dose series, 48 h
HCC-2998 colon = tested on: HCC-2998 colon
TK-10 renal = tested on: TK-10 renal
MDA-N = tested on: MDA-N
HOP-92 NSCLC = tested on: HOP-92 NSCLC
SW-620 colon = tested on: SW-620 colon
NCI-H23 lung = tested on: NCI-H23 lung
MALME-3M melanoma = tested on: MALME-3M melanoma
HCT-116 colon = tested on: HCT-116 colon
SNB-75 CNS = tested on: SNB-75 CNS
OVCAR-5 ovarian = tested on: OVCAR-5 ovarian
SK-MEL-28 melanoma = tested on: SK-MEL-28 melanoma
SF-539 CNS = tested on: SF-539 CNS
LOX IMVI melanoma = tested on: LOX IMVI melanoma
K-562 leukemia = tested on: K-562 leukemia
IGROV1 ovarian = tested on: IGROV1 ovarian
BT-549 breast = tested on: BT-549 breast
CAKI-1 renal = tested on: CAKI-1 renal
ACHN renal = tested on: ACHN renal
UACC-62 melanoma = tested on: UACC-62 melanoma
OVCAR-8 ovarian = tested on: OVCAR-8 ovarian
U251 CNS = tested on: U251 CNS
DU-145 prostate = tested on: DU-145 prostate
SF-295 CNS = tested on: SF-295 CNS
T-47D breast = tested on: T-47D breast
HOP-62 NSCLC = tested on: HOP-62 NSCLC
HT29 colon = tested on: HT29 colon
M14 melanoma = tested on: M14 melanoma
NCI/ADR-RES ovarian = tested on: NCI/ADR-RES ovarian
MDA-MB-231 breast = tested on: MDA-MB-231 breast
KM12 colon = tested on: KM12 colon
OVCAR-4 ovarian = tested on: OVCAR-4 ovarian
OVCAR-3 ovarian = tested on: OVCAR-3 ovarian
NCI-H522 lung = tested on: NCI-H522 lung
MOLT-4 leukemia = tested on: MOLT-4 leukemia
MDA-MB-435 = tested on: MDA-MB-435
UACC-257 melanoma = tested on: UACC-257 melanoma
SF-268 CNS = tested on: SF-268 CNS
A549 NSCLC = tested on: A549 NSCLC
HCT-15 colon = tested on: HCT-15 colon
SN12C renal = tested on: SN12C renal
SK-OV-3 ovarian = tested on: SK-OV-3 ovarian
PC-3 prostate = tested on: PC-3 prostate
MCF7 breast = tested on: MCF7 breast
HL-60(TB) leukemia = tested on: HL-60(TB) leukemia
786-0 renal = tested on: 786-0 renal
COLO 205 colon = tested on: COLO 205 colon
RPMI-8226 leukemia = tested on: RPMI-8226 leukemia
SNB-19 CNS = tested on: SNB-19 CNS
CCRF-CEM leukemia = tested on: CCRF-CEM leukemia
SR leukemia = tested on: SR leukemia
SK-MEL-5 melanoma = tested on: SK-MEL-5 melanoma
HS 578T breast = tested on: HS 578T breast
UO-31 renal = tested on: UO-31 renal
EKVX NSCLC = tested on: EKVX NSCLC
SK-MEL-2 melanoma = tested on: SK-MEL-2 melanoma
A498 renal = tested on: A498 renal
RXF 393 renal = tested on: RXF 393 renal
NCI-H460 lung = tested on: NCI-H460 lung

CCC12CCCN(Cc3ccccc3)C1c1c([nH]c3ccccc13)C(C(=O)OC)C2 (centres undefined)
TGI (HCC-2998 colon): > 10 µM | TGI (TK-10 renal): > 10 µM | TGI (MDA-N): > 10 µM | TGI (HOP-92 NSCLC): > 10 µM | TGI (SW-620 colon): > 10 µM | TGI (NCI-H23 lung): > 10 µM | TGI (MALME-3M melanoma): > 10 µM | TGI (HCT-116 colon): > 10 µM | TGI (SNB-75 CNS): > 10 µM | TGI (OVCAR-5 ovarian): > 10 µM | TGI (SK-MEL-28 melanoma): > 10 µM | TGI (SF-539 CNS): > 10 µM | TGI (LOX IMVI melanoma): > 10 µM | TGI (K-562 leukemia): > 10 µM | TGI (IGROV1 ovarian): > 10 µM | TGI (BT-549 breast): > 10 µM | TGI (CAKI-1 renal): > 10 µM | TGI (ACHN renal): > 10 µM | TGI (UACC-62 melanoma): > 10 µM | TGI (OVCAR-8 ovarian): > 10 µM | TGI (U251 CNS): > 10 µM | TGI (DU-145 prostate): > 10 µM | TGI (SF-295 CNS): > 10 µM | TGI (T-47D breast): > 10 µM | TGI (HOP-62 NSCLC): > 10 µM | TGI (HT29 colon): > 10 µM | TGI (M14 melanoma): > 10 µM | TGI (NCI/ADR-RES ovarian): > 10 µM | TGI (MDA-MB-231 breast): > 10 µM | TGI (KM12 colon): > 10 µM | TGI (OVCAR-4 ovarian): > 10 µM | TGI (OVCAR-3 ovarian): > 10 µM | TGI (NCI-H522 lung): > 10 µM | TGI (MOLT-4 leukemia): > 10 µM | TGI (MDA-MB-435): > 10 µM | TGI (UACC-257 melanoma): > 10 µM | TGI (SF-268 CNS): > 10 µM | TGI (A549 NSCLC): > 10 µM | TGI (HCT-15 colon): > 10 µM | TGI (SN12C renal): > 10 µM | TGI (SK-OV-3 ovarian): > 10 µM | TGI (PC-3 prostate): > 10 µM | TGI (MCF7 breast): > 10 µM | TGI (HL-60(TB) leukemia): > 10 µM | TGI (786-0 renal): > 10 µM | TGI (COLO 205 colon): > 10 µM | TGI (RPMI-8226 leukemia): > 10 µM | TGI (SNB-19 CNS): > 10 µM | TGI (CCRF-CEM leukemia): > 10 µM | TGI (SR leukemia): > 10 µM | TGI (SK-MEL-5 melanoma): > 10 µM | TGI (HS 578T breast): > 10 µM

N#CCc1n[nH]c(Cc2ccccc2)n1
TGI (HCC-2998 colon): > 100 µM | TGI (TK-10 renal): > 100 µM | TGI (MDA-N): > 100 µM | TGI (UO-31 renal): > 100 µM | TGI (HOP-92 NSCLC): > 100 µM | TGI (SW-620 colon): > 100 µM | TGI (NCI-H23 lung): > 100 µM | TGI (EKVX NSCLC): > 100 µM | TGI (MALME-3M melanoma): > 100 µM | TGI (HCT-116 colon): > 100 µM | TGI (SNB-75 CNS): > 100 µM | TGI (OVCAR-5 ovarian): > 100 µM | TGI (SK-MEL-28 melanoma): > 100 µM | TGI (SF-539 CNS): > 100 µM | TGI (LOX IMVI melanoma): > 100 µM | TGI (K-562 leukemia): > 100 µM | TGI (IGROV1 ovarian): > 100 µM | TGI (BT-549 breast): > 100 µM | TGI (CAKI-1 renal): > 100 µM | TGI (ACHN renal): > 100 µM | TGI (UACC-62 melanoma): > 100 µM | TGI (OVCAR-8 ovarian): > 100 µM | TGI (U251 CNS): > 100 µM | TGI (SK-MEL-2 melanoma): > 100 µM | TGI (DU-145 prostate): > 100 µM | TGI (SF-295 CNS): > 100 µM | TGI (T-47D breast): > 100 µM | TGI (HOP-62 NSCLC): > 100 µM | TGI (HT29 colon): > 100 µM | TGI (M14 melanoma): > 100 µM | TGI (NCI/ADR-RES ovarian): > 100 µM | TGI (MDA-MB-231 breast): > 100 µM | TGI (KM12 colon): > 100 µM | TGI (OVCAR-4 ovarian): > 100 µM | TGI (OVCAR-3 ovarian): > 100 µM | TGI (A498 renal): > 100 µM | TGI (NCI-H522 lung): > 100 µM | TGI (MOLT-4 leukemia): > 100 µM | TGI (MDA-MB-435): > 100 µM | TGI (UACC-257 melanoma): > 100 µM | TGI (SF-268 CNS): > 100 µM | TGI (A549 NSCLC): > 100 µM | TGI (HCT-15 colon): > 100 µM | TGI (SN12C renal): > 100 µM | TGI (SK-OV-3 ovarian): > 100 µM | TGI (RXF 393 renal): > 100 µM | TGI (PC-3 prostate): > 100 µM | TGI (MCF7 breast): > 100 µM | TGI (HL-60(TB) leukemia): > 100 µM | TGI (786-0 renal): > 100 µM | TGI (COLO 205 colon): > 100 µM | TGI (SNB-19 CNS): > 100 µM | TGI (NCI-H460 lung): > 100 µM | TGI (CCRF-CEM leukemia): > 100 µM | TGI (SR leukemia): > 100 µM | TGI (SK-MEL-5 melanoma): > 100 µM | TGI (HS 578T breast): > 100 µM
